Test results: the PolyMetriX glass transition set

**Q.** With `*C(=O)c1ccc2c(c1)C(=O)N(c1cccc(Cc3ccccc3N3C(=O)c4ccc(*)cc4C3=O)c1)C2=O` (repeat unit) as the molecule, how does the glass transition temperature read?
**A.** 258.00 °C

**Q.** Which glass transition temperature does the source give for `*c1ccc2c(c1)C(=O)N(c1cccc(C(=O)Nc3ccc(Oc4ccc(C(c5ccc(Oc6ccc(NC(=O)c7cccc(N8C(=O)c9ccc(C(*)(C(F)(F)F)C(F)(F)F)cc9C8=O)c7)cc6)cc5)(C(F)(F)F)C(F)(F)F)cc4)cc3)c1)C2=O` (repeat unit) here?
**A.** 266.00 °C

**Q.** With `*CCCCCCCCCCCCNC(=O)CCCCCCCCCCCCCCC(=O)N*` (repeat unit) as the molecule, how does the glass transition temperature read?
**A.** 46.00 °C

**Q.** For `*CCCCOc1ccc(C(=O)OC(=O)c2ccc(O*)cc2)cc1` (repeat unit), which glass transition temperature is on record?
**A.** 45.00 °C

**Q.** Which glass transition temperature does the source give for `*Oc1ccc(S(=O)(=O)c2ccc(Oc3ccc(/N=C/c4ccc(*)cc4)cc3)cc2)cc1` (repeat unit) here?
**A.** 110.00 °C

**Q.** Which glass transition temperature does the source give for `*CNC(=O)CCCCCCCCC(=O)NCC1COC(*)CO1` (repeat unit) here?
**A.** 73.00 °C

**Q.** With `*c1ccc(Oc2ccccc2Oc2ccc(N3C(=O)c4ccc(Oc5ccccc5Oc5ccc6c(c5)C(=O)N(*)C6=O)cc4C3=O)cc2C(F)(F)F)c(C(F)(F)F)c1` (repeat unit) as the molecule, how does the glass transition temperature read?
**A.** 185.00 °C

**Q.** With `*c1ccc(Oc2ccc(C(=O)c3ccc(Oc4ccc(-c5nc(-c6ccccn6)nnc5*)cc4)cc3)cc2)cc1` (repeat unit) as the molecule, how does the glass transition temperature read?
**A.** 223.00 °C

**Q.** With `*c1ccc(Oc2ccc(Oc3ccc(-c4ccc(Oc5ccc(Oc6ccc(C7(*)OC(=O)c8ccccc87)cc6)cc5)c5ccccc45)c4ccccc34)cc2)cc1` (repeat unit) as the molecule, how does the glass transition temperature read?
**A.** 198.00 °C

**Q.** For `*c1cccc(C(=O)Nc2ccc(Oc3cccc(Oc4ccc(NC(=O)c5cccc(N6C(=O)c7ccc(-c8cccc9c8C(=O)N(*)C9=O)cc7C6=O)c5)cc4)c3)cc2)c1` (repeat unit), which glass transition temperature is on record?
**A.** 253.00 °C

**Q.** Which glass transition temperature does the source give for `*Oc1ccc(S(=O)(=O)c2ccc(Oc3ccc(C(=O)c4ccc(*)cc4)cc3)cc2)cc1` (repeat unit) here?
**A.** 205.00 °C

**Q.** For `*Oc1ccc(CC(NC(=O)CCc2ccc(OC(=O)CCCCCCC(*)=O)cc2)C(=O)OC)cc1` (repeat unit), which glass transition temperature is on record?
**A.** 55.50 °C

**Q.** With `*C1C(=O)N(c2cc(Br)c(O[Si](c3ccccc3)(c3ccccc3)c3ccccc3)c(Br)c2)C(=O)C1*` (repeat unit) as the molecule, how does the glass transition temperature read?
**A.** 179.00 °C

**Q.** With `*CC(*)c1cccc(O)c1` (repeat unit) as the molecule, how does the glass transition temperature read?
**A.** 169.00 °C

**Q.** With `*CCCCCCOP(=O)(/N=N/c1ccc(Oc2ccc(/N=N/P(=O)(O*)OC)cc2)cc1)OC` (repeat unit) as the molecule, how does the glass transition temperature read?
**A.** 25.00 °C

**Q.** Which glass transition temperature does the source give for `*c1cccc(C(=O)Nc2ccc(Oc3cccc(Oc4ccc(NC(=O)c5cccc(N6C(=O)c7ccc(-c8ccc9c(c8)C(=O)N(*)C9=O)cc7C6=O)c5)cc4)c3)cc2)c1` (repeat unit) here?
**A.** 253.00 °C

**Q.** With `*c1cccc(OCCCCCCCCCCCCOc2cccc(N3C(=O)c4ccc(-c5ccc6c(c5)C(=O)N(*)C6=O)cc4C3=O)c2)c1` (repeat unit) as the molecule, how does the glass transition temperature read?
**A.** 116.00 °C

**Q.** Which glass transition temperature does the source give for `*c1ccc(Oc2ccc(N3C(=O)c4c(c(-c5ccccc5)c(-c5ccc(Oc6ccc(-c7c(-c8ccccc8)c8c(c(-c9ccccc9)c7-c7ccccc7)C(=O)N(*)C8=O)cc6)cc5)c(-c5ccccc5)c4-c4ccccc4)C3=O)cc2)cc1` (repeat unit) here?
**A.** 360.00 °C

**Q.** Which glass transition temperature does the source give for `*CCCCCCNC(=O)CC(=O)N*` (repeat unit) here?
**A.** 50.00 °C

**Q.** For `*c1cccc(N2C(=O)c3ccc(C(c4ccc5c(c4)C(=O)N(c4cccc(-n6c(=O)c7cc8c(=O)n(*)c(=O)c8cc7c6=O)c4)C5=O)(C(F)(F)F)C(F)(F)F)cc3C2=O)c1` (repeat unit), which glass transition temperature is on record?
**A.** 338.00 °C

**Q.** Which glass transition temperature does the source give for `*Oc1ccc(S(=O)(=O)c2ccc(Oc3ccc(NC(=O)c4ccc(Oc5ccc(C(C)(C)c6cccc(C(C)(C)c7ccc(Oc8ccc(C(=O)Nc9ccc(*)cc9)cc8)cc7)c6)cc5)cc4)cc3)cc2)cc1` (repeat unit) here?
**A.** 167.00 °C

**Q.** For `*c1ccc(OCCCCCCCCCCCCCCCC)c(N2C(=O)CC(C3C=C(C)C4C(=O)N(*)C(=O)C4C3)C2=O)c1` (repeat unit), which glass transition temperature is on record?
**A.** 186.00 °C
